One assay concerns the target T1, H1299 cell pAxl (Homo sapiens, UniProt P30530).
T1 construct: endogenous in cells; host or cells: H1299
T1 sequence (P30530 26-894): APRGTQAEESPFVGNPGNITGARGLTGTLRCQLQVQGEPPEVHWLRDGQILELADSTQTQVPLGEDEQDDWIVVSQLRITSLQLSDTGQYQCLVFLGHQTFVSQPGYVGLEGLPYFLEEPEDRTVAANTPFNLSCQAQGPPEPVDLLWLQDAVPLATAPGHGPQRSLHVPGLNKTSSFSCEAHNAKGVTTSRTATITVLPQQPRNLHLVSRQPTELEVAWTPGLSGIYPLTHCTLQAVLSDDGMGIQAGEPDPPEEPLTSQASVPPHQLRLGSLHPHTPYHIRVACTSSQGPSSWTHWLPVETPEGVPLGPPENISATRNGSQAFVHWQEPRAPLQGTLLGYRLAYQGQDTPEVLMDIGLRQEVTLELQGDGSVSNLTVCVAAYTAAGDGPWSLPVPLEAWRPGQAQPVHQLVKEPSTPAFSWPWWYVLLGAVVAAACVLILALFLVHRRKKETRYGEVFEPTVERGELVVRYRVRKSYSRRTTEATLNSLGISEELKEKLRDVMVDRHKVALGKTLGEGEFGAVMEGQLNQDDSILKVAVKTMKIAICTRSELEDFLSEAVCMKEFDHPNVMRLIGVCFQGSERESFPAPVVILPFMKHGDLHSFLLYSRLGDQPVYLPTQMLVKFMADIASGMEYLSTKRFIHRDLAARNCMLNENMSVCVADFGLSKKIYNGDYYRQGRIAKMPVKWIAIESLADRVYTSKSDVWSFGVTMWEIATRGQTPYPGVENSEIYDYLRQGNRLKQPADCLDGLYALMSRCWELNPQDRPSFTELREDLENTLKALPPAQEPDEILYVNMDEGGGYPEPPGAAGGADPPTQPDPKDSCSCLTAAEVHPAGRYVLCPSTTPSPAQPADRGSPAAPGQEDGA
As to the kind of experiment: Inhibitory activity on the cell pAxl (Western Blot). Format: cell-based. As to conditions: H1299 cells, compound 1.1, 3.3, 10, 30 nM, hGAS6 200 ng/mL. The procedure:
Assay 5: Test for Inhibitory Activities of the Compounds of the Present Invention on the Cell pAxl
H1299 is a non-small cell lung cancer cell.
Test substances: the compounds of the present invention, wherein the structures thereof were as described above.
Test equipment: protein electrophoresis apparatus (manufactured by Bio Rad), transfer unit (manufactured by Bio Rad), exposure unit (manufactured by Tanon), CO2, cell incubator (manufactured by Thermo).
The H1299 cells were inoculated in a 6-well plate (containing 10% FBS 1640 medium, 5×10^5 cells per well), and adherent cells were cultivated at 37° C. in a 5% CO2 condition for 18 hours. The cells were starved overnight. Different concentrations of compounds were added. The final compound concentrations were 1.1, 3.3, 10, and 30 nM, and the final DMSO content was 1‰. The negative control wells contained the medium containing 1‰ DMSO. After incubating at 37° C. in a 5% CO2 condition for 60 minutes, hGAS6 (R&D, final concentration 200 ng/mL) was added to each well. After further incubating for 60 minutes, the cell total protein was extracted for Western Blot and the […] values were calculated using GraphPad 5.0 software. The inhibitory activity of the compound on the cell pAxl was examined.
For orientation: A western blot detects proteins with antibodies after separation by electrophoresis.

A further assay deals with T2, Axl (h) (Homo sapiens, UniProt P30530).
T2 construct: purchased
T2 sequence (P30530 26-894): T1 sequence (P30530 26-894)
As to the kind of experiment: Enzymatic activity test, Axl (h). Format: biochemical. Particulars: 10 μM [γ-33P]-ATP, 40 minutes, room temperature. The protocol:
Assay 3: Enzymatic Activity Test of the Compounds of the Present Invention
Test substances: the compounds of the present invention, wherein the structures and preparations thereof were as described above.
(1) Preparation of the Compound Stock Solution
The compound was dissolved in 100% DMSO to prepare a stock solution with a maximum concentration of 500 μM.
(2) Preparation of the Compound Working Solution
The compound stock solution was diluted to final concentrations of 500, 150, 50, 15, 5, 1.5, 0.5, 0.15 and 0.05 μM to become the compound working solutions (50×).
(3) Preparation of Different Enzyme Reaction Solutions
The Axl (h) enzyme was dissolved in 8 mM MOPS (pH 7.0), 0.2 mM EDTA, and 250 μM KKSRGDYMTMQIG to prepare an enzyme solution having a final concentration of 1.7 nM. The enzymatic reaction was activated by using 10 mM magnesium acetate and 10 μM [γ-^33P]-ATP to form an Mg/ATP mixed solution.
In a 384-well plate, the compound working solution was added to final concentrations of 10000, 3000, 1000, 300, 100, 30, 10, 3, and 1 nM. Then different enzyme reaction solutions prepared according to the above conditions were added. The incubation was carried out for 40 minutes at room temperature. The test was terminated by the addition of a 0.5% phosphoric acid solution. 10 μL of the reaction solution was taken and dropped to the P30 filter paper. The filter paper was washed 4 times with 0.425% phosphoric acid solution and once with methanol, and then placed on a scintillation counter. The […] IC50 values were calculated using GraphPad 5.0 software.

A word on the IC50: it is the concentration at which inhibition is half-maximal. A higher IC50 goes with weaker potency. Consider `COc1cc2nccc(Oc3ccc(NC(=O)c4nn(C5CC5)cc(-c5ccc(C)cc5)c4=O)nc3)c2cc1OC` [Compound 46, 1-cyclopropyl-N-(5-((6,7-dimethoxyquinolin-4-yl)oxy)pyridin-2-yl)-4-oxo-5-p-tolyl-1,4-dihydropyridazine-3-carboxamide], for which the IC50 against H1299 cell pAxl is less than 1.1 nM.
Still for that read-out and setting: then `COc1cc2nccc(Oc3cnc(NC(=O)c4cn(C5CC5)nc(-c5ccc(F)cc5)c4=O)nc3)c2cc1OC` [Compound 45, 2-cyclopropyl-N-(5-((6,7-dimethoxyquinolin-4-yl)oxy)pyrimidine-2-yl)-6-(4-fluorophenyl)-5-oxo-2,5-dihydropyridazine-4-carboxamide], with 1.1 nM.
With `COc1cc2nccc(Oc3cnc(NC(=O)c4cn(C(C)C)nc(-c5ccc(F)cc5)c4=O)nc3)c2cc1OC` [Compound 39, N-(5-((6,7-dimethoxyquinolin-4-yl)oxy)pyrimidine-2-yl)-6-(4-fluorophenyl)-2-isopropyl-5-oxo-2,5-dihydropyridazine-4-carboxamide], the IC50 was found to be 4 nM at Axl (h) and 3.3 nM at H1299 cell pAxl.
In the same order, the values of `COc1cc2nccc(Oc3ccc(NC(=O)c4cn(C5CC5)cc(-c5ccc(F)cc5)c4=O)nc3)c2cc1OC` [Compound 30, N-(5-((6,7-dimethoxyquinolin-4-yl)oxy)pyridin-2-yl)-1-cyclopropyl-4-oxo-5-para-fluorophenyl-1,4-hydropyridin-3-carboxamide] are 7 nM and less than 1.1 nM.
The like results for `COc1cc2nccc(Oc3ccc(NC(=O)c4nn(C5CC5)cc(-c5ccc(F)cc5)c4=O)cn3)c2cc1OC` [Compound 36] were, in that order, 3 nM and less than 1.1 nM.
In the same order, the values of `COc1cc2nccc(Oc3ncc(NC(=O)c4nn(C5CC5)cc(-c5ccc(F)cc5)c4=O)cn3)c2cc1OC` [Compound 37, 1-cyclopropyl-N-(2-((6,7-dimethoxyquinolin-4-yl)oxy)pyrimidine-5-yl)-5-para-fluorophenyl-4-oxo-1,4-dihydropyridazine-3-carboxamide] are 2 nM and less than 1.1 nM.
For the compound `COc1cc2nccc(Oc3ccc(NC(=O)c4cn(C(C)C)cc(-c5ccc(C)cc5)c4=O)nc3)c2cc1OC` [Compound 1, N-(5-((6,7-dimethoxyquinolin-4-yl)oxy)pyridin-2-yl)-1-isopropyl-4-oxo-5-p-tolyl-1,4-dihydropyridin-3-carboxamide], the IC50 is 17 nM against Axl (h) and less than 1.1 nM against H1299 cell pAxl.
On to `COc1cc2nccc(Oc3ccc(NC(=O)c4nn(C5CC5)cc(-c5ccc(F)cc5)c4=O)nc3)c2cc1OC` [Compound 31], for which the IC50 against Axl (h) is 4 nM; on H1299 cell pAxl it was less than 1.1 nM.
In the same order, the values of `COc1cc2nccc(Oc3cnc(NC(=O)c4nn(C(C)C)cc(-c5ccc(F)cc5)c4=O)nc3)c2cc1OC` [Compound 16, N-(5-((6,7-dimethoxyquinolin-4-yl)oxy)pyrimidine-2-yl)-5-(4-fluorophenyl)-1-isopropyl-4-oxo-1,4-dihydropyridazine-3-carboxamide] are 13 nM and less than 1.1 nM.
The like results for `COc1cc2nccc(Oc3cnc(NC(=O)c4nn(C5CC5)cc(-c5ccc(F)cc5)c4=O)nc3)c2cc1OC` [Compound 33] were, in that order, 2 nM and less than 1.1 nM.
As to `COc1cc2nccc(Oc3ccc(NC(=O)c4cn(C5CC5)nc(-c5ccc(F)cc5)c4=O)nc3)c2cc1OC` [Compound 42, 2-cyclopropyl-N-(5--((6,7-dimethoxyquinolin-4-yl)oxy)pyridin-2-yl)-6-(4-fluorophenyl)-5-oxo-2,5-dihydropyridazine-4-carboxamide], the IC50 at H1299 cell pAxl fell in the range of 1.1 to 3.3 nM.
Still for that read-out and setting: then `COc1cc2nccc(Oc3ccc(NC(=O)c4cn(C5CC5)nc(-c5ccc(F)cc5)c4=O)cn3)c2cc1OC` [Compound 43, 2-cyclopropyl-N-(6-((6,7-dimethoxyquinolin-4-yl)oxy)pyridin-3-yl)-6-para-fluorophenyl-5-oxo-2,5-dihydropyridazine-4-carboxamide], with 3.3 nM.

The values above are taken from US20220073496A1, “NOVEL QUINOLINE DERIVATIVE INHIBITOR” (Nanjing Transthera Biosciences Co., Ltd., priority 2018, published 2022).
